Source: patent US5962487A, “Antipicornaviral compounds and methods for their use and preparation” (Agouron Pharmaceuticals, Inc., priority 1997, dated 1999)
pEC50, pKi: −log10 of the molar value.

Assays:
[1] = target: T1, Rhinovirus 3C protease (RVP) serotype-14 (Human rhinovirus 14, UniProt P03303); assay: Inhibition of Rhinovirus Protease, serotype 14 (FRET assay); assay type: biochemical; settings: for kinact/KI: read-out: kobs/I; for pKi: RVP serotype-14, 10 minute preincubation with 50 nM RVP prior to addition of substrate, read-out: INHIB (Ki)
T1 construct: Recombinant Rhinovirus 3C proteases from serotypes 14, 16, 2 or 89 were prepared; made in house
T1 sequence (P03303 1538-1719): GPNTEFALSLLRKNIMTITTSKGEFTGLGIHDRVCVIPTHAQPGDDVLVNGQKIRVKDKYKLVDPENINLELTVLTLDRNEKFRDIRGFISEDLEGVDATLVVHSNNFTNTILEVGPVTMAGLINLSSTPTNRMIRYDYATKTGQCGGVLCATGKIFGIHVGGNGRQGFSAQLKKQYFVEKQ
Protocol: Stock solutions (50 mM, in DMSO) of various compounds were prepared; dilutions were in the same solvent. Recombinant Rhinovirus 3C proteases from serotypes 14, 16, 2 or 89 were prepared by the following standard chromatographic procedures: (1) ion exchange using Q Sepharose Fast Flow from Pharmacia; (2) affinity chromatography using Affi-Gel Blue from Biorad; and (3) sizing using Sephadex G-100 from Pharmacia. Assays contained 2% DMSO, 50 mM tris pH 7.6, 1 mM EDTA, a compound at the indicated concentrations, approximately 1 μM substrate, and 50-100 nM protease. For Ki determinations, the compound and the enzyme were preincubated for 10 minutes at 30° C. prior to addition of the substrate (substrate start). The kobs/I values were obtained from reactions initiated by addition of enzyme rather than substrate. RVP activity is measured in the fluorescence resonance energy transfer assay. The substrate was (N-terminal) DABCYL-(Gly-Arg-Ala-Val-Phe-Gln-Gly-Pro-Val-Gly)-EDANS. In the uncleaved peptide, the EDANS fluorescence was quenched by the proximal DABCYL moiety. When the peptide was cleaved, the quenching was relieved, and activity was measured as an increase in fluorescence signal.
In the above table, all data is for RVP serotype-14 unless otherwise noted in parentheses. All strains of human rhinovirus (HRV) were purchased from American Type Culture Collection (ATCC), except for serotype 14, which was produced from the infectious cDNA clone constructed and supplied to us by Dr. Roland Rueckert at the Institute for Molecular Virology, University of Wisconsin, Madison, Wis. The column designated INHIB represents the percent inhibition, with the concentration of the compound in μM indicated in parentheses, unless Ki was assigned as designated by (Ki), at 10 minute preincubation with 50 nM RVP prior to addition of substrate was used. The data in the column designated kobs/I was measured from progress curves in enzyme start experiments.

HRV-14 = assay: Antirhinoviral HI-HeLa Cell Culture Assay (cell protection, XTT), HRV-14; assay type: cell-based, human rhinovirus; settings: for TI: CC50/EC50, HRV serotype-14, 2880 min; for pEC50: Rhinovirus B, HRV14, 48 h, HRV serotype-14 infected HI-HeLa cells, XTT, two days
Protocol: In the Cell Protection Assay, the ability of compounds to protect cells against HRV infection was measured by the XTT dye reduction method. This method is described in O. S. Weislow, R. Kiser, D. L. Fine, J. Bader, R. H. Shoemaker, and M. R. Boyd, J. Natl. Cancer Inst. 1989, 81, 577-586, which document is entirely incorporated herein by reference.
(§1) HI-HeLa cells were infected with HRV-14 (unless otherwise noted) at a multiplicity of infection (m.o.i.) of 0.13 (virus particles/cell) or mock-infected with medium only. Infected or mock-infected cells were resuspended at 8×10^5 cells per mL and incubated with appropriate concentrations of compounds of formulas I and II. Two days later, XTT/PMS was added to test plates, and the amount of formazan produced was quantified spectrophotometrically at 450/650 nm. The EC50 was calculated as the concentration of compound that increased the percentage of formazan production in compound-treated, virus-infected cells to 50% of that produced by compound-free mock-infected cells. The 50% cytotoxic dose (CC50) was calculated as the concentration of compound that decreased the percentage of formazan produced in compound-treated, mock-infected cells to 50% of that produced in compound-free, mock-infected cells. The therapeutic index (TI) was calculated by dividing the CC50 by the EC50.
(§2) All strains of human rhinovims (HRV) for use in this assay were purchased from American Type Culture Collection (ATCC), except for HRV serotype-14, which was produced from the infectious cDNA clone, constructed and supplied to us by Dr. Roland Rueckert at the Institute for Molecular Virology, University of Wisconsin, Madison, Wis. HRV stocks were propagated, and antiviral assays were performed in HI-HeLa (ATCC). Cells were grown in Minimal Essential Medium, available from Life Technologies, with 10% fetal bovine serum.
The compounds were tested against control compounds WIN 51711, WIN 52084, and WIN 54954, all obtained from Sterling-Winthrop Pharmaceuticals, and control compound Pirodavir, obtained from Janssen Pharmaceuticals. Antiviral data obtained for the test compounds are shown in Table 2 where all data are for HRV serotype-14 unless otherwise noted in parentheses.

in vitro = assay type: cell-based; settings: human, hi-hela cells
Protocol: as §1, §2

SMILES | kinact/KI [1] | TI (HRV-14) | pEC50 (HRV-14) | CC50 at 48 h (in vitro) | pKi [1]
CCOC(=O)/C(C)=C/[C@H](CCC(N)=O)NC(=O)[C@H](Cc1ccc(C)cc1)N(C)C(=O)[C@@H](NC(=O)SC1CCCC1)C(C)(C)C [Compound 49] | 1910 M⁻¹ s⁻¹ | 710 | 7.00 | 71 µM | –
CCOC(=O)/C=C/[C@H](CCC(N)=O)NC(=O)[C@H](Cc1ccc(C)cc1)N(C)C(=O)[C@@H](NC(=O)SC1CCCC1)C(C)(C)C [Compound 48] | 14000 M⁻¹ s⁻¹ | > 20 | 6.30 | > 10 µM | –
CC(C)C[C@H](NC(=O)OCc1ccccc1)C(=O)N1CCCC[C@H]1C(=O)N[C@H](/C=C/C(=O)N1CCCCO1)CCC(N)=O [Compound 26, 1-[1',2'-Oxazin-2'-yl]-3-(CBZ-L-Leu-L-Pip-L-Gln)-E-Propenone] | 875 M⁻¹ s⁻¹ | > 5 | 4.25 | > 320 µM | 4.47
CON(C)C(=O)/C=C/[C@H](CCC(N)=O)NC(=O)[C@@H]1[C@@H](c2ccccc2)CCN1C(=O)[C@H](CC(C)C)NC(=O)OCc1ccccc1 [Compound 22, N-Methoxy, N-Methyl-3-[CBZ-L-Leu L-(3R-Phenyl)-Pro-L-Gln]-E-Propenamide] | 100 M⁻¹ s⁻¹ | > 2 | 3.75 | > 320 µM | –
Cc1cc(CCCCCCCOc2ccc(C3=NCCO3)cc2)on1 [WIN 51711, reference compound] | – | > 77 | 6.11 | > 60 µM | –
CCOC(=O)/C=C/[C@H](CCC(N)=O)NC(=O)C1CN(Cc2ccccc2)CCN1C(=O)[C@H](CC(C)C)NC(=O)OCc1ccccc1 (mixture of isomers) [Compound 28, Ethyl-3-(CBZ-L-Leu-DL-(4-Benzyl)-Pipz-L-Gln]-E-Propenoate] | 116 M⁻¹ s⁻¹ | 18 | 5.16 | 125 µM | 4.30
CCOC(=O)/C=C/[C@H](CCC(N)=O)NC(=O)Cn1c(-c2ccccc2)ncc(NC(=O)OCc2ccccc2)c1=O [Compound 30, Ethyl-3-([(5-CBZ-Amino)-2-Phenyl-6-Oxo-1,6-Dihydro-1-Pyrimidinyl]-L-Gln)-E-Propenoate] | 163 M⁻¹ s⁻¹ | 25 | 5.14 | 177 µM | 4.26
CCOC(=O)/C=C/[C@H](CCC(N)=O)NC(=O)[C@H](Cc1ccccc1)N(C)C(=O)[C@H](CC(C)C)NC(=O)SC1CCCCC1 [Compound 42] | 15000 M⁻¹ s⁻¹ | 111 | 6.35 | 50.1 µM | –
CCOC(=O)/C=C/[C@H](CCC(N)=O)NC(=O)[C@@H]1CCCN1C(=O)[C@H](CC(C)C)NC(=O)OCc1ccccc1 [Compound 19, Ethyl-3-(CBZ-L-Leu-L-Pro-L-Gln)-E-Propenoate] | 1930 M⁻¹ s⁻¹ | > 6 | 4.30 | > 320 µM | –
CCOC(=O)/C=C/[C@H](CCC(N)=O)NC(=O)[C@@H]1C[C@@H](OCc2ccccc2)CN1C(=O)[C@H](CC(C)C)NC(=O)OCc1ccccc1 [Compound 20, Ethyl-3-[CBZ-L-Leu-L-(4R-Benzyloxy)-Pro-L-Gln]-E-Propenoate] | 3330 M⁻¹ s⁻¹ | 10.3 | 5.27 | 56 µM | 4.21
CCOC(=O)/C=C/[C@H](CCC(N)=O)NC(=O)[C@H](Cc1ccccc1)N(C)C(=O)[C@H](CSc1ccccc1)NC(=O)SC1CCCC1 [Compound 46] | 36800 M⁻¹ s⁻¹ | 33 | 6.27 | 18 µM | –
CCSC(=O)N[C@H](C(=O)N(C)[C@@H](Cc1ccccc1)C(=O)N[C@H](/C=C1\CCOC1=O)CCC(N)=O)C(C)C [Compound 12, 2-(Ethylthiocarbonyl-L-Val-L-N-Me-Phe-L-Gln)-E-(α-Vinyl-γ-Butyrolactone)] | 5070 M⁻¹ s⁻¹ | > 76 | 5.38 | > 320 µM | –
CCOC(=O)/C=C/[C@H](CCC(N)=O)NC(=O)Cn1c(-c2ccccc2)ncc(N)c1=O [Compound 31, Ethyl-3-{[(5-Amino)-2-Phenyl-6Oxo-1,6-Dihydro-1-Pyrimidinyl]-L-Gln}-Propenoate] | 39 M⁻¹ s⁻¹ | > 6 | 4.25 | > 320 µM | –
CCOC(=O)/C=C/[C@H](CCC(N)=O)NC(=O)[C@H](Cc1ccccc1)N(C)C(=O)[C@H](CC(C)C)NC(=O)SCC [Compound 11, Ethyl-3-(Ethylthiocarbonyl-L-Leu-L-N-Me-Phe-L-Gln)-E-Propenoate] | 12000 M⁻¹ s⁻¹ | > 603 | 6.28 | > 320 µM | –
CCOC(=O)/C=C/[C@H](CCC(N)=O)NC(=O)C1CN(S(=O)(=O)c2ccccc2)CCN1C(=O)[C@H](CC(C)C)NC(=O)OCc1ccccc1 (mixture of isomers) [Compound 29, Ethyl-3-[CBZ-L-Leu-DL-(4-Phenylsulfonyl)-Pipz-L-Gln]-E-Propenoate] | 45 M⁻¹ s⁻¹ | 5 | 4.34 | 251 µM | –
CCSC(=O)N[C@@H](CC(C)C)C(=O)N(C)[C@@H](Cc1ccccc1)C(=O)N[C@H](/C=C1\CCOC1=O)CCC(N)=O [Compound 8, 2-(Ethylthiocarbonyl-L-Leu-L-N-Me-Phe-L-Gln)-E-(α-Vinyl-γ-Butyrolactone)] | 6880 M⁻¹ s⁻¹ | > 32 | 5.00 | > 320 µM | –
CCOC(=O)/C=C/[C@H](CCC(N)=O)NC(=O)[C@H](Cc1ccccc1)N(C)C(=O)[C@H](CC(C)C)NC(=O)SC1CCCC1 [Compound 5, Ethyl-3-(Cyclopentylthiocarbonyl-L-Leu-L-N-Me-Phe-L-Gln)-E-Propenoate] | 17300 M⁻¹ s⁻¹ | 214 | 6.62 | 51.4 µM | –
CCOC(=O)/C(C)=C/[C@H](CCC(N)=O)NC(=O)[C@H](Cc1ccccc1)N(C)C(=O)[C@H](CC(C)C)NC(=O)SC(C)C [Compound 39] | 2330 M⁻¹ s⁻¹ | 113 | 5.80 | 180 µM | –
CCOC(=O)/C(C)=C/[C@H](CCC(N)=O)NC(=O)[C@H](Cc1ccccc1)N(C)C(=O)[C@H](CC(C)C)NC(=O)SC1CCCCC1 [Compound 43] | 2200 M⁻¹ s⁻¹ | 16 | 5.46 | 56.2 µM | –
CCOC(=O)/C=C/[C@H](CCC(N)=O)NC(=O)[C@H](Cc1ccccc1)N(C)C(=O)OCc1ccccc1 [Compound 1, Ethyl-3-(CBZ-L-N-Me-Phe-L-Gln)-E-Propenoate] | 52 M⁻¹ s⁻¹ | 13 | 4.70 | 251 µM | < 4.00
CCOC(=O)/C(C)=C/[C@H](CCC(N)=O)NC(=O)[C@H](Cc1ccccc1)N(C)C(=O)[C@H](CC(C)C)NC(=O)SCC1CCCCC1 [Compound 41] | 2350 M⁻¹ s⁻¹ | 9 | 5.70 | 18 µM | –
Cc1cc(CCCCCCCOc2ccc(C3=N[C@@H](C)CO3)cc2)on1 [WIN 52084, reference compound] | – | > 143 | 7.15 | > 10 µM | –
